Measurements published in ChEMBL document CHEMBL1136379, “Identification of potent and broad-spectrum antibiotics from SAR studies of a synthetic vancomycin analogue” (2003).
≈ marks a conversion by molar mass, not a printed value.

Tests used:
Assay type in all cases: functional
Enterococcus faecium [1] = test: Minimum inhibitory concentration against vancomycin-resistant Enterococcus faecium
Enterococcus faecium [2] = test: Compound tested for Susceptibility of vancomycin-resistant Enterococcus faecium
Streptococcus pyogenes = test: Compound tested for Susceptibility of Streptococcus pyogenes
Haemophilus influenzae [3] = test: Compound tested for Susceptibility of Haemophilus influenzae (efflux mutant)
Streptococcus pneumoniae [4] = test: Compound tested for Susceptibility of Streptococcus pneumoniae (Penicillin-intermediate)
[5] = system: Staphylococcus epidermidis; test: Compound tested for Susceptibility of Staphylococcus epidermidis
Enterococcus faecium [6] = test: Compound tested for Susceptibility of Enterococcus faecium
Moraxella catarrhalis = test: Compound tested for Susceptibility of Moraxella catarrhalis
Escherichia coli [7] = test: Compound tested for Susceptibility of Escherichia coli
Streptococcus pneumoniae [8] = test: Compound tested for Susceptibility of Streptococcus pneumoniae
Pseudomonas aeruginosa = test: Compound tested for Susceptibility of Pseudomonas aeruginosa
Escherichia coli [9] = test: Compound tested for Susceptibility of Escherichia coli (efflux mutant)
[10] = system: Staphylococcus epidermidis; test: Compound tested for Susceptibility of Methicillin-resistant Staphylococcus epidermidis (MRSE)
Haemophilus influenzae [11] = test: Compound tested for Susceptibility of Haemophilus influenzae
Klebsiella pneumoniae = test: Compound tested for Susceptibility of Klebsiella pneumoniae
Staphylococcus aureus [12] = test: Compound tested for Susceptibility of Staphylococcus aureus
Enterococcus faecalis = test: Compound tested for Susceptibility of Enterococcus faecalis
Staphylococcus aureus [13] = test: Compound tested for Susceptibility of Methicillin-resistant Staphylococcus aureus […]

| SMILES | MIC (Enterococcus faecium [1]) | MIC (Enterococcus faecium [2]) | further results |
| --- | --- | --- | --- |
| CN[C@H](CC(C)C)C(=O)N[C@@H]1Cc2ccc(cc2)Oc2cc(ccc2O)C(C(=O)N[C@@H](CN)C(=O)N[C@@H](Cc2ccccc2)C(=O)N2Cc3[nH]c4ccccc4c3C[C@H]2C(N)=O)NC(=O)[C@H](CC(N)=O)NC1=O (stereo not given in full) | 300 µg/mL (≈ 300 µM) | 150 µg/mL (≈ 150 µM) | – |
| CC(=O)N[C@@H](CN)C(=O)N[C@@H](Cc1ccccc1)C(=O)N1Cc2[nH]c3ccccc3c2C[C@H]1C(N)=O | 600 µg/mL (≈ 1220 µM) | 1200 µg/mL (≈ 2450 µM) | – |
| CN[C@H](CC(C)C)C(=O)N[C@@H](CN)C(=O)N[C@@H](Cc1ccccc1)C(=O)N1Cc2[nH]c3ccccc3c2C[C@H]1C(N)=O | 600 µg/mL (≈ 1040 µM) | > 1200 µg/mL | – |
| CC(=O)N[C@@H](CN)C(=O)N[C@@H](Cc1ccccc1)C(=O)N1Cc2[nH]c3ccccc3c2C[C@H]1C(=O)NCC(O)CNC(=O)[C@@H]1Cc2c([nH]c3ccccc23)CN1C(=O)[C@H](Cc1ccccc1)NC(=O)[C@H](CN)NC(C)=O | 600 µg/mL (≈ 578 µM) | 18 µg/mL (≈ 17.4 µM) | – |
| CNC(CC(C)C)C(=O)N[C@@H](CN)C(=O)N[C@@H](Cc1ccccc1)C(=O)N1Cc2[nH]c3ccccc3c2C[C@H]1C(=O)NCC(O)CNC(=O)[C@@H]1Cc2c([nH]c3ccccc23)CN1C(=O)[C@H](Cc1ccccc1)NC(=O)[C@H](CN)NC(=O)[C@@H](CC(C)C)NC (stereo not given in full) | 600 µg/mL (≈ 497 µM) | 18 µg/mL (≈ 14.9 µM) | MIC (Streptococcus pyogenes): 2 µg/mL (≈ 1.66 µM); MIC (Haemophilus influenzae [3]): 16 µg/mL (≈ 13.3 µM); MIC (Streptococcus pneumoniae [4]): 8 µg/mL (≈ 6.63 µM); MIC [5]: 24 µg/mL (≈ 19.9 µM); MIC (Enterococcus faecium [6]): 4 µg/mL (≈ 3.31 µM); MIC (Moraxella catarrhalis): 8 µg/mL (≈ 6.63 µM); MIC (Escherichia coli [7]): 32 µg/mL (≈ 26.5 µM); MIC (Streptococcus pneumoniae [8]): 16 µg/mL (≈ 13.3 µM); MIC (Pseudomonas aeruginosa): 128 µg/mL (≈ 106 µM); MIC (Escherichia coli [9]): 16 µg/mL (≈ 13.3 µM); MIC [10]: 8 µg/mL (≈ 6.63 µM); MIC (Haemophilus influenzae [11]): 96 µg/mL (≈ 79.5 µM); MIC (Klebsiella pneumoniae): > 128 µg/mL; MIC (Staphylococcus aureus [12]): 16 µg/mL (≈ 13.3 µM); MIC (Enterococcus faecalis): 8 µg/mL (≈ 6.63 µM); MIC (Staphylococcus aureus [13]): 32 µg/mL (≈ 26.5 µM) |
| CN[C@H](CC(C)C)C(=O)N[C@@H]1Cc2ccc(cc2)Oc2cc(ccc2O)C(C(=O)N[C@@H](CN)C(=O)N[C@@H](Cc2ccccc2)C(=O)N2Cc3[nH]c4ccccc4c3C[C@H]2C(=O)NCCC(O)CCNC(=O)[C@@H]2Cc3c([nH]c4ccccc34)CN2C(=O)[C@H](Cc2ccccc2)NC(=O)[C@H](CN)NC(=O)C2NC(=O)[C@H](CC(N)=O)NC(=O)[C@H](NC(=O)[C@@H](CC(C)C)NC)Cc3ccc(cc3)Oc3cc2ccc3O)NC(=O)[C@H](CC(N)=O)NC1=O (stereo not given in full) | 600 µg/mL (≈ 288 µM) | 18 µg/mL (≈ 8.64 µM) | – |
| NC(=O)C[C@@H]1NC(=O)[C@H](NC(=O)OCC2c3ccccc3-c3ccccc32)Cc2ccc(cc2)Oc2c(O)ccc(CC(=O)O)c2NC1=O | 300 µg/mL (≈ 451 µM) | – | – |
| CN[C@@H](CC(C)C)C(=O)N[C@@H]1Cc2ccc(cc2)Oc2cc(ccc2O)C(C(=O)N[C@@H](CN)C(=O)N[C@@H](Cc2ccccc2)C(=O)N2Cc3[nH]c4ccccc4c3C[C@H]2C(=O)NCCCC(O)CCCNC(=O)[C@@H]2Cc3c([nH]c4ccccc34)CN2C(=O)[C@H](Cc2ccccc2)NC(=O)[C@H](CN)NC(=O)C2NC(=O)[C@H](CC(N)=O)NC(=O)[C@H](NC(=O)[C@@H](CC(C)C)NC)Cc3ccc(cc3)Oc3cc2ccc3O)NC(=O)[C@H](CC(N)=O)NC1=O (stereo not given in full) [VANCOMYCIN ANALOGUE] | 600 µg/mL (≈ 284 µM) | 38 µg/mL (≈ 18 µM) | – |
| CN[C@H](CC(C)C)C(=O)N[C@@H]1Cc2ccc(cc2)Oc2cc(ccc2O)C(C(=O)N[C@@H](CN)C(=O)N[C@@H](Cc2ccccc2)C(=O)N2Cc3[nH]c4ccccc4c3C[C@H]2C(=O)NCC(O)CNC(=O)[C@@H]2Cc3c([nH]c4ccccc34)CN2C(=O)[C@H](Cc2ccccc2)NC(=O)[C@H](CN)NC(=O)C2NC(=O)[C@H](CC(N)=O)NC(=O)[C@H](NC(=O)[C@@H](CC(C)C)NC)Cc3ccc(cc3)Oc3cc2ccc3O)NC(=O)[C@H](CC(N)=O)NC1=O (stereo not given in full) [VANCOMYCIN ANALOGUE] | 600 µg/mL (≈ 292 µM) | 9 µg/mL (≈ 4.38 µM) | – |
| CN[C@H](CC(C)C)C(=O)N[C@H]1C(=O)N[C@@H](CC(N)=O)C(=O)N[C@H]2C(=O)N[C@H]3C(=O)N[C@H](C(=O)N[C@H](C(=O)O)c4cc(O)cc(O)c4-c4cc3ccc4O)[C@H](O)c3ccc(c(Cl)c3)Oc3cc2cc(c3O[C@@H]2O[C@H](CO)[C@@H](O)[C@H](O)[C@H]2O[C@H]2C[C@](C)(N)[C@H](O)[C@H](C)O2)Oc2ccc(cc2Cl)[C@H]1O [VANCOMYCIN] | 600 µg/mL (≈ 414 µM) | 600 µg/mL (≈ 414 µM) | – |
